Consider 3 compounds from patent US12419839B2, “Methods and compositions for targeted delivery of protein fragments” (Signablok, Inc., priority 2009, dated 2025).

Where no end group is shown, it is not given here.

Series [1] concerns A549 xenograft. Nature of the series: A549 xenograft mouse model of NSCLC. Format: in vivo. Particulars: compared to the vehicle-treated group. From the text:
FIG. 16 presents exemplary data showing that in drug-containing synthetic (recombinant) HDL (SLP, LPC), apolipoprotein can be replaced by synthetic apolipoprotein fragments without compromising the drug antitumor activity in an animal model. Bars, SEM. For statistical analysis, each treatment was compared with the vehicle control using Student's t test. **, P 0.001 to 0.01. Abbreviations: apo, apolipoprotein; HDL, high density lipoproteins; HDL (A-Iox), HDL with oxidized human apo A-I; HDL (PE22ox+PA22ox), HDL with a 1:1 mixture of synthetic peptides PE22ox and PA22ox that correspond to apo A-I helixes 4 and 6, respectively (SEE FIG. 12); dHDL and sHDL, discoidal and spherical HDL, respectively; LPC, lipoprotein/lipopeptide complexes; NSCLC, non-small cell lung cancer; PTX, paclitaxel; SLP, synthetic lipoprotein/lipopeptide particles; TREM-1, triggering receptor expressed on myeloid cells-1.
See, FIGS. 15 and 16. Here, A549 cells were injected subcutaneously into nude mice and randomized into treatment groups (n=10) once tumors reached an average of 200 mm^3. The treatment groups were: i) Vehicle (HDL containing no GF9); ii) paclitaxel (PTX) as a positive control; iii) GF9-dHDL (A-Iox); iv) GF9-sHDL (A-Iox); v) GF9-dHDL(PE22ox+PA22ox); and vi) GF9-sHDL(PE22ox+PA22ox) where each group received intraperitoneal injections twice a week. […]

Series [2] relates to GM-CSF, IFNγ, IL-1β, IL-2, IL-6, IL-17, M-CSF and TNFα. Nature of the series: serum cytokines in mice with CIA. It is filed as in vivo. Particulars: serum on day 38; MG11 and MG11-2G 25 mg/kg, sHDL-bound MG11 2.5 mg/kg; vs vehicle.
The subject of series [3] is mice with CIA. Particulars: sHDL-bound MG11 2.5 mg/kg.

Regarding `CC(=O)O[C@H]1C(=O)[C@@]2(C)[C@H]([C@H](OC(=O)c3ccccc3)[C@]3(O)C[C@H](OC(=O)[C@H](O)[C@@H](NC(=O)c4ccccc4)c4ccccc4)C(C)=C1C3(C)C)[C@]1(OC(C)=O)CO[C@@H]1C[C@@H]2O` [PTX, paclitaxel], in series [1], the “post necropsy excised tumors weights” value was “significantly lower”.

For the compound MWGTPTLGYFG [MG11-2G], in series [2], the serum cytokine release entry was “no effect”. Also, the “clinical severity of CIA” value in series [3] (i.p. daily for 14 days from day 24, MG11 and MG11-2G 25 mg/kg, vs vehicle) is given as “no effect”.

Consider MWKTPTLKYFG [free MG11, MWKTPTLKYFG], for which the body weight result in series [3] (i.p. daily for 14 days, MG11 25 mg/kg) is recorded as “without affecting body weight”.
